The target of this experiment is T1, Recombinant human CBP containing the bromodomain (CBP-BD (1043-1159)) (Homo sapiens, UniProt Q92793).
T1 construct: Recombinant human CBP bromodomain (CBP-BD (1043-1159)); made in house; host or cells: E. coli BL21-CodonPlus (DE3), modified pET vector
The experiment can be described thus: CBP Alphascreen binding assay. Conditions: read-out: CREBBP (CBP) IC50. The method in brief: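 Buffer: 50 mM HEPES pH 7.5, 50 mM NaCl, 0.01% BSA, 0.01% Triton X-100, 2 mM DTT. The signal was normalised to plate controls and fitted with a four-parameter curve to give IC50.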

T1 sequence (Q92793 1081-1197): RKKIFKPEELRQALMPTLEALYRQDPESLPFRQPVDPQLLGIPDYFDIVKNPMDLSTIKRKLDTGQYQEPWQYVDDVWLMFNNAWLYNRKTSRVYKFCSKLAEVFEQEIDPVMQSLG

For the compound `Cc1noc(C)c1-c1cnc2c(c1)c(-c1c(Cl)cc(C(=O)O)cc1OC1CCC1)cn2C1CCOCC1` [P-0358, 3-chloro-5-cyclobutoxy-4-(5-(3,5-dimethylisoxazol-4-yl)-1-(tetrahydro-2H-pyran-4-yl)-1H-pyrrolo[2,3-b]pyridin-3-yl)benzoic acid], the IC50 lay in the range of 0.1 to 1000 nM.

On to `Cc1noc(C)c1-c1cnc2c(c1)c(-c1c(Cl)cc(C(=O)O)cc1OCC(F)F)cn2C1CCOCC1` [P-0359, 3-chloro-5-(2,2-difluoroethoxy)-4-(5-(3,5-dimethylisoxazol-4-yl)-1-(tetrahydro-2H-pyran-4-yl)-1H-pyrrolo[2,3-b]pyridin-3-yl)benzoic acid], for which the IC50 is 0.1 to 1000 nM.

For `CCOc1cc(C(=O)O)c(F)cc1-c1cn([C@H]2CCOC2)c2ncc(-c3c(C)noc3C)cc12` [P-0360, (S)-4-(5-(3,5-dimethylisoxazol-4-yl)-1-(tetrahydrofuran-3-yl)-1H-pyrrolo[2,3-b]pyridin-3-yl)-5-ethoxy-2-fluorobenzoic acid], the IC50 was 0.1 to 1000 nM.

Regarding `Cc1noc(C)c1-c1cnc2c(c1)c(-c1c(Cl)cc(C(=O)O)cc1OC1CCC1)cn2[C@H]1CCOC1` [P-0361, (S)-3-chloro-5-cyclobutoxy-4-(5-(3,5-dimethylisoxazol-4-yl)-1-(tetrahydrofuran-3-yl)-1H-pyrrolo[2,3-b]pyridin-3-yl)benzoic acid], the IC50 is 0.1 to 1000 nM.

With `COc1cc(C(=O)O)ncc1-c1cn(C2CCOCC2)c2ncc(-c3c(C)noc3C)cc12` [P-0362, 5-(5-(3,5-dimethylisoxazol-4-yl)-1-(tetrahydro-2H-pyran-4-yl)-1H-pyrrolo[2,3-b]pyridin-3-yl)-4-methoxypicolinic acid], the IC50 lay within 0.1 to 1000 nM.

Consider `Cc1noc(C)c1-c1cnc2c(c1)c(-c1c(Cl)cc(C(=O)O)cc1OC1CC1)cn2C(C1CC1)C1CC1` [P-0363, 3-chloro-5-cyclopropoxy-4-(1-(dicyclopropylmethyl)-5-(3,5-dimethylisoxazol-4-yl)-1H-pyrrolo[2,3-b]pyridin-3-yl)benzoic acid], for which the IC50 was 0.1 to 1000 nM.

In the case of `Cc1noc(C)c1-c1cnc2c(c1)c(-c1ccc(C(=O)O)cc1OC(F)(F)F)cn2CC1(C#N)CCC1` [P-0364, 4-(1-((1-cyanocyclobutyl)methyl)-5-(3,5-dimethylisoxazol-4-yl)-1H-pyrrolo[2,3-b]pyridin-3-yl)-3-(trifluoromethoxy)benzoic acid], the IC50 lay within 0.1 to 1000 nM.

As to `Cc1nn(CC(C)(C)O)cc1-n1cc(-c2ccc(C(=O)O)cc2OC(F)(F)F)c2cc(-c3c(C)noc3C)cnc21` [P-0365, 4-(5-(3,5-dimethylisoxazol-4-yl)-1-(1-(2-hydroxy-2-methylpropyl)-3-methyl-1H-pyrazol-4-yl)-1H-pyrrolo[2,3-b]pyridin-3-yl)-3-(trifluoromethoxy)benzoic acid], the 50% inhibitory concentration (IC50) is 0.1 to 1000 nM.

With `Cc1nn(CC(=O)N(C)C)cc1-n1cc(-c2ccc(C(=O)O)cc2OC(F)(F)F)c2cc(-c3c(C)noc3C)cnc21` [P-0366, 4-(1-(1-(2-(dimethylamino)-2-oxoethyl)-3-methyl-1H-pyrazol-4-yl)-5-(3,5-dimethylisoxazol-4-yl)-1H-pyrrolo[2,3-b]pyridin-3-yl)-3-(trifluoromethoxy)benzoic acid], the IC50 is 0.1 to 1000 nM.

For the compound `Cc1cc(C(=O)O)cc(OCC(F)F)c1-c1cn(C2CCOCC2)c2ncc(-c3c(C)noc3C)cc12` [P-0367, 3-(2,2-difluoroethoxy)-4-(5-(3,5-dimethylisoxazol-4-yl)-1-(tetrahydro-2H-pyran-4-yl)-1H-pyrrolo[2,3-b]pyridin-3-yl)-5-methylbenzoic acid], the IC50 is 0.1 to 1000 nM.

Consider `COc1nc(C(=O)O)ccc1-c1cn(C2CCOCC2)c2ncc(-c3c(C)noc3C)cc12` [P-0368, 5-(5-(3,5-dimethylisoxazol-4-yl)-1-(tetrahydro-2H-pyran-4-yl)-1H-pyrrolo[2,3-b]pyridin-3-yl)-6-methoxypicolinic acid], for which the half-inhibitory concentration (IC50) lay in the range of 0.1 to 1000 nM.

On to `Cc1noc(C)c1-c1cnc2c(c1)c(-c1c(F)cc(C(=O)O)cc1OC(C)C)cn2C(C1CC1)C1CC1` [P-0369, 4-(1-(dicyclopropylmethyl)-5-(3,5-dimethylisoxazol-4-yl)-1H-pyrrolo[2,3-b]pyridin-3-yl)-3-fluoro-5-isopropoxybenzoic acid], for which the half-maximal inhibitory concentration (IC50) is 0.1 to 1000 nM.

For the compound `CCOc1cc(C(=O)O)cc(Cl)c1-c1cn(C(C2CC2)C2CC2)c2ncc(-c3c(C)noc3C)cc12` [P-0370, 3-chloro-4-(1-(dicyclopropylmethyl)-5-(3,5-dimethylisoxazol-4-yl)-1H-pyrrolo[2,3-b]pyridin-3-yl)-5-ethoxybenzoic acid], the 50% inhibitory concentration (IC50) is 0.1 to 1000 nM.

Take `CCOc1cc(C(=O)O)cc(Cl)c1-c1cn(C2CCOCC2)c2ncc(-c3c(C)noc3C)cc12` [P-0371, 3-chloro-4-(5-(3,5-dimethylisoxazol-4-yl)-1-(tetrahydro-2H-pyran-4-yl)-1H-pyrrolo[2,3-b]pyridin-3-yl)-5-ethoxybenzoic acid]: the concentration for half-maximal inhibition (IC50) was in the range of 0.1 to 1000 nM.

In the case of `Cc1noc(C)c1-c1cnc2c(c1)c(-c1c(Cl)cc(C(=O)O)cc1OC(C)C)cn2C1CCOCC1` [P-0372, 3-chloro-4-(5-(3,5-dimethylisoxazol-4-yl)-1-(tetrahydro-2H-pyran-4-yl)-1H-pyrrolo[2,3-b]pyridin-3-yl)-5-isopropoxybenzoic acid], the IC50 fell in the range of 0.1 to 1000 nM.

Consider `CCOc1cc(C(=O)O)nc(OCC)c1-c1cn(C2CCOCC2)c2ncc(-c3c(C)noc3C)cc12` [P-0373, 5-(5-(3,5-dimethylisoxazol-4-yl)-1-(tetrahydro-2H-pyran-4-yl)-1H-pyrrolo[2,3-b]pyridin-3-yl)-4,6-diethoxypicolinic acid], for which the IC50 fell in the range of 0.1 to 1000 nM.

On to `CCOc1cc(C(=O)O)c(F)c(OCC)c1-c1cn(C2CCOCC2)c2ncc(-c3c(C)noc3C)cc12` [P-0374, 4-(5-(3,5-dimethylisoxazol-4-yl)-1-(tetrahydro-2H-pyran-4-yl)-1H-pyrrolo[2,3-b]pyridin-3-yl)-3,5-diethoxy-2-fluorobenzoic acid], for which the half-inhibitory concentration (IC50) lay within 0.1 to 1000 nM.

For the compound `CCOc1cc(C(=O)O)c(F)cc1-c1cn(C2CCOCC2)c2ncc(-c3c(C)noc3C)cc12` [P-0375, 4-(5-(3,5-dimethylisoxazol-4-yl)-1-(tetrahydro-2H-pyran-4-yl)-1H-pyrrolo[2,3-b]pyridin-3-yl)-5-ethoxy-2-fluorobenzoic acid], the IC50 lay in the range of 0.1 to 1000 nM.

Turning to `CCOc1nc(C(=O)O)ccc1-c1cn(C2CCOCC2)c2ncc(-c3c(C)noc3C)cc12` [P-0376, 5-(5-(3,5-dimethylisoxazol-4-yl)-1-(tetrahydro-2H-pyran-4-yl)-1H-pyrrolo[2,3-b]pyridin-3-yl)-6-ethoxypicolinic acid], the 50% inhibitory concentration (IC50) was in the range of 0.1 to 1000 nM.

In the case of `CCOc1cc(C(=O)O)c(F)cc1-c1cn(-c2ccccc2F)c2ncc(-c3c(C)noc3C)cc12` [P-0377, 4-(5-(3,5-dimethylisoxazol-4-yl)-1-(2-fluorophenyl)-1H-pyrrolo[2,3-b]pyridin-3-yl)-5-ethoxy-2-fluorobenzoic acid], the IC50 lay within 0.1 to 1000 nM.

On to `Cc1noc(C)c1-c1cnc2c(c1)c(-c1ccc(C(=O)O)cc1OC(F)(F)F)cn2C1CCC1` [P-0378, 4-(1-cyclobutyl-5-(3,5-dimethylisoxazol-4-yl)-1H-pyrrolo[2,3-b]pyridin-3-yl)-3-(trifluoromethoxy)benzoic acid], for which the IC50 fell in the range of 0.1 to 1000 nM.

As for `Cc1noc(C)c1-c1cnc2c(c1)c(-c1ccc(C(=O)O)cc1OC1CC1)cn2C1CCOCC1` [P-0379, 3-cyclopropoxy-4-(5-(3,5-dimethylisoxazol-4-yl)-1-(tetrahydro-2H-pyran-4-yl)-1H-pyrrolo[2,3-b]pyridin-3-yl)benzoic acid], the IC50 is 0.1 to 1000 nM.

`Cc1noc(C)c1-c1cnc2c(c1)c(-c1c(Cl)cc(C(=O)O)cc1OC(F)(F)F)cn2C(C1CCC1)C1CCC1` [P-0380, 3-chloro-4-(1-(dicyclobutylmethyl)-5-(3,5-dimethylisoxazol-4-yl)-1H-pyrrolo[2,3-b]pyridin-3-yl)-5-(trifluoromethoxy)benzoic acid]: the IC50 was 0.1 to 1000 nM.

Regarding `Cc1noc(C)c1-c1cnc2c(c1)c(-c1c(Cl)cc(C(=O)O)cc1OC1CC1)cn2C1CCOCC1` [P-0381, 3-chloro-5-cyclopropoxy-4-(5-(3,5-dimethylisoxazol-4-yl)-1-(tetrahydro-2H-pyran-4-yl)-1H-pyrrolo[2,3-b]pyridin-3-yl)benzoic acid], the IC50 was in the range of 0.1 to 1000 nM.

Take `Cc1noc(C)c1-c1cnc2c(c1)c(-c1ccc(C(=O)O)cc1OC(F)(F)F)cn2C1CCCC1` [P-0382, 4-(1-cyclopentyl-5-(3,5-dimethylisoxazol-4-yl)-1H-pyrrolo[2,3-b]pyridin-3-yl)-3-(trifluoromethoxy)benzoic acid]: the IC50 was 0.1 to 1000 nM.

`Cc1noc(C)c1-c1cnc2c(c1)c(-c1ccc(C(=O)O)cc1OC(F)(F)F)cn2C1(C)CCOC1` (centres unmarked) [P-0383, 4-(5-(3,5-dimethylisoxazol-4-yl)-1-(3-methyltetrahydrofuran-3-yl)-1H-pyrrolo[2,3-b]pyridin-3-yl)-3-(trifluoromethoxy)benzoic acid]: the IC50 was 0.1 to 1000 nM.

With `Cc1noc(C)c1-c1cnc2c(c1)c(-c1ccc(C(=O)O)cc1OC(F)(F)F)cn2-c1cnc(C2CC2)nc1` [P-0384, 4-(1-(2-cyclopropylpyrimidin-5-yl)-5-(3,5-dimethylisoxazol-4-yl)-1H-pyrrolo[2,3-b]pyridin-3-yl)-3-(trifluoromethoxy)benzoic acid], the half-maximal inhibitory concentration (IC50) lay in the range of 0.1 to 1000 nM.

Consider `Cc1noc(C)c1-c1cnc2c(c1)c(-c1ccc(C(=O)O)cc1OC(F)(F)F)cn2C1(C)CCOCC1` [P-0385, 4-(5-(3,5-dimethylisoxazol-4-yl)-1-(4-methyltetrahydro-2H-pyran-4-yl)-1H-pyrrolo[2,3-b]pyridin-3-yl)-3-(trifluoromethoxy)benzoic acid], for which the IC50 is 0.1 to 1000 nM.

Consider `Cc1noc(C)c1-c1cnc2c(c1)c(-c1c(Cl)cc(C(=O)O)cc1OC(F)(F)F)cn2-c1cnc(C2CC2)nc1` [P-0386, 3-chloro-4-(1-(2-cyclopropylpyrimidin-5-yl)-5-(3,5-dimethylisoxazol-4-yl)-1H-pyrrolo[2,3-b]pyridin-3-yl)-5-(trifluoromethoxy)benzoic acid], for which the IC50 lay in the range of 0.1 to 1000 nM.
